Laboratory results reported in patent publication US20230000852A1, “Treatment of Dermal Cytokine Storm Syndromes” (Bridge Pharma, Inc., priority 2021, published 2023).

Tests used:
[1] = system: IL-4; test: PHA-induced IL-4 release from human leucocytes (buffy coats); format: cell-based; conditions: Leucocyte, 30 min pre-incubation, PHA 5 μg/ml 16 hours
Experimental: (§1) The objective of this study was to assess the ability of norketotifen to inhibit cytokine release from stimulated human leucocytes.
(§2) The study was conducted in two phases. The first phase included optimization of the test methodology and including dose-range finding studies, using buffy coats from 3 human donors, stimulated with phytohemagglutinin (PHA). Following optimization of the test conditions, a final protocol was issued. In the ensuing Main Study, white blood cells (buffy coats) from 5 healthy human donors were stimulated with PHA, 5 μg/ml. The concentrations of the test article and the duration of exposure were optimized to obtain acceptable dose-response ratios. Thus, the inhibitory effects of three concentrations of NK and one concentration of ketotifen were evaluated in the Main Study. The buffy coats containing white blood cells from 5 male human donors were resuspended in assay media and were pre-incubated for 30 min with either vehicle/saline, ketotifen 4.3 μg/ml (10 μM) and norketotifen 0.4 μg/ml, 4.1 μg/ml and 41 μg/ml (1.0; 10 and 100 μM). Following these preincubations, the white blood cells were stimulated for 16 hours with PHA, 5 μg/ml. The cell system supernatants were then harvested and stored frozen pending analyses.
(§3) The concentration of the test articles had to be high in this ex vivo study since the test kit used a high concentration of the agonist PHA (5 μg/ml) and a long exposure time (16 hrs).

[2] = system: IL-1β; test: PHA-induced IL-1β release from human leucocytes (buffy coats); format: cell-based; conditions: Leucocyte, 30 min pre-incubation, PHA 5 μg/ml 16 hours
Experimental: as §1, §2, §3

[3] = system: sedation; conditions: art-accepted mouse model of sedation; U.S. Pat. Nos. 7,226,934 and 7,557,128; cited from earlier work
[4] = system: IMQ-induced psoriasiform hypercytokinemia; test: Imiquimod (IMQ) induced psoriasis in mice; format: in vivo; conditions: for Scratching bouts: Day 6, 30 minutes observation; for Total Scores ± SEM: cumulative erythema plus scaling plus thickness; for Mean Scores of Skin Lesions: Redness / Mean Scores of Skin Lesions: Scaling / Mean Scores of Skin Lesions: Thickness: scale 0 to 4
Description: The objective of this study was to assess the ability of NK to inhibit the IMQ-induced psoriasiform hypercytokinemia in mice. Topically applied IMQ is known to induce a psoriasis-like Cytokine Storm in mice by releasing a large number of cytokines, thereby causing a disease (hypercytokinemia) that is closely similar to psoriasis in human patients. Female BALB/c mice were used (8-11 weeks old; 4 animals/group). A psoriasiform skin condition was induced by repeated applications of an IMO-cream on the pre-shaved skin of the back of mice for 6 days, using […] 5% cream (IMQ-cream), at a dose of 62.5 mg per mouse, which is equal to 3.125 mg active per mouse. Starting from day 3 of dosing the skin was scored for Redness, Thickness and Scaling using a scoring system on the scale of 0 to 4, where 0=none; 1=slight; 2=moderate; 3=marked; and 4=very marked. The cumulative scores (erythema plus scaling plus thickness) served as a measure of the severity of dermal, psoriasis-like inflammation. […] A scratch bout was defined as one or more rapid back-and-forth hind paw motions directed toward and contacting the IMQ-treated area. • Group 1: (IMQ Positive Control Group): 4 mice were treated as described above. • Group 2: 4 mice were given NK 10 mg/kg/day, PO, starting 3 days before the first application of IMQ. • Group 3: same treatment as Group 2, but the dose of NK was 20 mg/kg/day. • Group 4: same treatment as Group 3, but the dose of NK was 30 mg/kg/day. ANOVA (Dunnett's Method)-positive control (IMQ) vs test groups. The methodology used here was the van der Fits (2009) method with minor modifications.

[5] = system: IL-8; test: PHA-induced IL-8 release from human leucocytes (buffy coats); format: cell-based; conditions: Leucocyte, 30 min pre-incubation, PHA 5 μg/ml 16 hours
Experimental: as §1, §2, §3

[6] = system: TNFα; test: PHA-induced TNFα release from human leucocytes (buffy coats); format: cell-based; conditions: Leucocyte, 30 min pre-incubation, PHA 5 μg/ml 16 hours
Experimental: as §1, §2, §3

[7] = system: MCP-1; test: PHA-induced MCP-1 release from human leucocytes (buffy coats); format: cell-based; conditions: Leucocyte, 30 min pre-incubation, PHA 5 μg/ml 16 hours
Experimental: as §1, §2, §3

## O=C1Cc2ccccc2C(=C2CCNCC2)c2ccsc21 (racemic) [NK, norketotifen]
[1]; 1 uM
  inhibition at 1 µM: 0%
[1]; 10 uM
  inhibition at 10 µM: 14.3%
[1]; 100 uM
  inhibition at 100 µM: 98.3%
[2]; 1 uM
  inhibition at 1 µM: 0%
[2]; 10 uM
  inhibition at 10 µM: 16.2%
[2]; 100 uM
  inhibition at 100 µM: 57%
[3]
  Sedative effects: significant sedative effects
[4]; NK 10 mg/kg/day PO from 3 days before IMQ
  Scratching bouts: 7.0
[4]; NK 10 mg/kg/day oral
  Total Scores ± SEM: 1.5 ± 0.65
  Mean Scores of Skin Lesions: Redness: 0.75
  Mean Scores of Skin Lesions: Scaling: 0.25
  Mean Scores of Skin Lesions: Thickness: 0.5
[4]; NK 20 mg/kg/day PO from 3 days before IMQ
  Scratching bouts: 4.25
[4]; NK 20 mg/kg/day oral
  Total Scores ± SEM: 0.5 ± 0.29
  Mean Scores of Skin Lesions: Redness: 0.5
  Mean Scores of Skin Lesions: Scaling: 0
  Mean Scores of Skin Lesions: Thickness: 0
[4]; NK 30 mg/kg/day oral
  Total Scores ± SEM: 0.33 ± 0.33
  Mean Scores of Skin Lesions: Redness: 0.33
  Mean Scores of Skin Lesions: Scaling: 0
  Mean Scores of Skin Lesions: Thickness: 0
[4]; antipruritic activity and redness, thickness, scaling scores
  Inhibition of psoriasis-related cytokine storm (in words): almost completely inhibited
[4]; oral NK, not statistically significant (p>0.05)
  Effect on scratching in mice (in words): dose-dependent effect
[5]; 1 uM
  inhibition at 1 µM: 10.3%
[5]; 10 uM
  inhibition at 10 µM: 34.4%
[5]; 100 uM
  inhibition at 100 µM: 78.3%
[6]; 1 uM
  inhibition at 1 µM: 4.54%
[6]; 10 uM
  inhibition at 10 µM: 42.2%
[6]; 100 uM
  inhibition at 100 µM: 89.1%
[7]; 1 uM
  inhibition at 1 µM: 2.04%
[7]; 10 uM
  inhibition at 10 µM: 14.3%
[7]; 100 uM
  inhibition at 100 µM: 84.5%
